Assay results published in US8318757B2, “Substituted isoxazoline compound and pest control agent” (Nissan Chemical Industries, Ltd., priority 2007, dated 2012).
Read-outs that look alike come from different tables or passages of the source.

Tests used:
Type in all cases: in vivo
Homona magnanima = test: Mortality Test for Homona magnanima; conditions: in Brassica oleracea, 144 h
Method: (§1) A 10% emulsifiable concentrate of the compound of the present invention (depending on the type of the compound, a 10% wettable powder was subjected to the test) was diluted with water containing a spreader to prepare a drug solution in a concentration of 100 ppm. In this drug solution, a leaf of cabbage was immersed for about 10 seconds and was air-dried and then put into a petri dish. In the petri dish, five 2 instar larvae of Homona magnanima per petri dish were released and the petri dish was capped and stored in a thermostatic room of 25° C. The number of killed larvae after 6 days was measured and the mortality was calculated from the same calculation formula as that in Test Example 1. Here, the test was carried out on the duplicate samples.

[1] = system: Frankliniella occidentalis; test: whole plant or invertebrate; conditions: in Phaseolus vulgaris, 48 h
Method: (§2) In a styrol cup having an inner diameter of 7 cm, a wet filtration paper was laid and on the paper, a leaf of kidney bean cut out so as to have the same diameter as the inner diameter of the cup was laid, followed by inoculating ten 1 instar larvae of Frankliniella occidentalis per leaf with the leaf. A 10% emulsifiable concentrate of the compound of the present invention (depending on the type of the compound, a 10% wettable powder was subjected to the test) was diluted with water containing a spreader to prepare a drug solution in a concentration of 500 ppm. The drug solution was sprayed using a rotary spray tower in an amount of 2.5 mL per styrol cup, and the cup was capped and stored in a thermostatic room of 25° C. The number of killed larvae after 2 days was measured and the mortality was calculated from the same calculation formula as that in Test Example 1. Here, the test was carried out on the duplicate samples.

Nilaparvata lugens = test: whole plant or invertebrate; conditions: 144 h
Method: A 10% emulsifiable concentrate of the compound of the present invention (depending on the type of the compound, a 10% wettable powder was subjected to the test) was diluted with water containing a spreader to prepare a drug solution in a concentration of 500 ppm. In this drug solution, a leaf sheath of rice was immersed for about 10 seconds and was air-dried and then put into a test tube. In the test tube, five 2 instar larvae of Nilaparvata lugens per test tube were released and the test tube was capped with a sponge and stored in a thermostatic room of 25° C. The number of killed larvae after 6 days was measured and the mortality was calculated from the same calculation formula as that in Test Example 1. Here, the test was carried out on the duplicate samples.

Bemisia argentifolii = test: whole plant or invertebrate; conditions: 144 h
Method: In a styrol cup having an inner diameter of 7 cm, a wet filtration paper was laid and on the paper, a cut-out leaf of tomato on which Bemisia argentifolii laid eggs (10 eggs/leaf) was laid. A 10% emulsifiable concentrate of the compound of the present invention (depending on the type of the compound, a 10% wettable powder was subjected to the test) was diluted with water containing a spreader to prepare a drug solution in a concentration of 500 ppm. The drug solution was sprayed using a rotary spray tower in an amount of 2.5 mL per styrol cup, and the cup was capped and stored in a thermostatic room of 25° C. The number of killed larvae after 6 days was measured and the mortality was calculated from the same calculation formula as that in Test Example 1. Here, the test was carried out on the duplicate samples.

Myzus persicae = test: whole plant or invertebrate; conditions: 144 h
Method: In a glass petri dish having an inner diameter of 3 cm, a wet absorbent cotton was laid and on the cotton, a leaf of cabbage cut out so as to have the same diameter as the inner diameter of the petri dish was laid, followed by releasing four apterous imagines of Myzus persicae on the leaf. After one day, a 10% emulsifiable concentrate of the compound of the present invention (depending on the type of the compound, a 10% wettable powder was subjected to the test) was diluted with water containing a spreader to prepare a drug solution in a concentration of 500 ppm. The drug solution was sprayed using a rotary spray tower (2.5 mg/cm^2), and the petri dish was capped and stored in a thermostatic room of 25° C. The number of killed imagines after 6 days was measured and the mortality was calculated from the same calculation formula as that in Test Example 1. Here, the test was carried out on the duplicate samples.

Liriomyza trifolii = test: whole plant or invertebrate; conditions: 144 h
Method: A 10% emulsifiable concentrate of the compound of the present invention (depending on the type of the compound, a 10% wettable powder was subjected to the test) was diluted with water containing a spreader to prepare a drug solution in a concentration of 500 ppm. In this drug solution, a leaf of kidney bean which was cut out to a diameter of 7 cm, on which Liriomyza trifolii laid eggs (10 eggs/leaf) was immersed for about 10 seconds and was air-dried and then laid on a wet filtration paper laid in a styrol cup having an inner diameter of 7 cm. The styrol cup was capped and stored in a thermostatic room of 25° C. The number of killed larvae after 6 days was measured and the mortality was calculated from the same calculation formula as that in Test Example 1. Here, the test was carried out on the duplicate samples.

Tetranychus urticae = test: whole plant or invertebrate; conditions: in Phaseolus vulgaris, 144 h
Method: as §2, with “ten” for “ten 1 instar”, “of Tetranychus urticae” for “of Frankliniella occidentalis”, “after 6” for “after 2”

Plutella xylostella = test: whole plant or invertebrate; conditions: 144 h
Method: as §1, with “10” for “100”, “Plutella xylostella” for “Homona magnanima”, “following” for “same”, “formula: Mortality (%)=(number of killed insect/number of released insect)×100.” for “formula as that in Test Example 1.”

Spodoptera litura = test: whole plant or invertebrate; conditions: 144 h
Method: as §1, with “10” for “100”, “Spodoptera litura” for “Homona magnanima”

Spodoptera exigua = test: Mortality Test for Spodoptera exigua; conditions: 144 h
Method: as §1, with “Spodoptera exigua” for “Homona magnanima”

Aculops pelekassi = test: whole plant or invertebrate; conditions: 144 h
Method: as §2, with “of mandarin orange” for “of kidney bean”, “ten” for “ten 1 instar”, “of Aculops pelekassi” for “of Frankliniella occidentalis”, “of 100” for “of 500”, “after 6” for “after 2”

Cat Flea = test: Mortality Test for Cat Flea; conditions: Ctenocephalides felis, 96 h
Method: To the bottom surface and the side surface of a petri dish having an inner diameter of 5.3 cm, 400 μL of an acetone solution in which 4 mg of the compound of the present invention was dissolved in 40 mL of acetone (concentration: 100 ppm) was applied and then acetone was volatilized to form a thin film of the compound of the present invention on the inner wall of the petri dish. […] In the petri dish, ten Ctenocephalides felis imagines (male and female were mixed) were released and the petri dish was capped and stored in a thermostat room of 25° C. The number of killed imagines after 4 days was measured and the mortality was calculated from the same calculation formula as that in Test Example 1. Here, the test was carried out on the single sample.

American Dog Tick = test: Mortality Test for American Dog Tick; conditions: Dermacentor variabilis, 96 h; thin film in petri dishes, applied drug 0.1 μg/cm^2; protonymphs; after 4 days
Method: To the bottom surface and the side surface of two petri dishes having an inner diameter of 5.3 cm, 400 μL of an acetone solution in which 4 mg of the compound of the present invention was dissolved in 40 mL of acetone (concentration: 100 ppm) was applied and then acetone was volatilized to form a thin film of the compound of the present invention on the inner wall of the petri dishes. […] In one of the petri dishes, ten American dog tick (Dermacentor variabilis) protonymphs (male and female were mixed) were released, and the petri dish was capped with the other petri dish. […] The number of killed protonymphs after 4 days was measured and the mortality was calculated from the same calculation formula as that in Test Example 1. Here, the test was carried out on the single sample.

[2] = drug solution 100 ppm (mark *), cabbage leaf immersed, 2 instar larvae, after 6 days, read-out: mortality

CCS(=O)(=O)CC(=O)N(C)Cc1ccc(C2=NOC(c3cc(Cl)c(Cl)c(Cl)c3)(C(F)(F)F)C2)cc1Cl (stereo not drawn) [2-005, N-[2-chloro-4-[5-(3,4,5-trichlorophenyl)-5-trifluoromethyl-4,5-dihydroisoxazole-3-yl]phenyl]methyl-2-ethylsulfonyl-N-methylacetamide]
≥ 80%: mortality at 100 ppm (Homona magnanima) | mortality at 500 ppm [1] | mortality at 500 ppm (Nilaparvata lugens; in Oryza sativa) | mortality at 500 ppm (Bemisia argentifolii; in Solanum lycopersicum) | mortality at 500 ppm (Myzus persicae; in Brassica oleracea) | mortality at 500 ppm (Liriomyza trifolii; in Phaseolus vulgaris) | mortality at 500 ppm (Tetranychus urticae)

CCSCC(=O)N(C)Cc1ccc(C2=NOC(c3cc(Cl)c(Cl)c(Cl)c3)(C(F)(F)F)C2)cc1Cl (stereo not drawn) [2-002, N-[2-chloro-4-[5-(3,4,5-trichlorophenyl)-5-trifluoromethyl-4,5-dihydroisoxazole-3-yl]phenyl]methyl-2-ethylthio-N-methylacetamide]
≥ 80%: mortality at 100 ppm (Homona magnanima) | mortality at 500 ppm [1] | mortality at 500 ppm (Nilaparvata lugens; in Oryza sativa) | mortality at 500 ppm (Bemisia argentifolii; in Solanum lycopersicum) | mortality at 500 ppm (Myzus persicae; in Brassica oleracea) | mortality at 500 ppm (Tetranychus urticae)

CS(CC(=O)NCc1ccc(C2=NOC(c3cc(Cl)c(Cl)c(C(F)(F)F)c3)(C(F)(F)F)C2)cc1Br)=NC(=O)C(F)(F)F (stereo not drawn) [1-102, N-[2-bromo-4-[5-[3,4-dichloro-5-(trifluoromethyl)phenyl]-5-trifluoromethyl-4,5-dihydroisoxazole-3-yl]phenyl]methyl-2-[N-(trifluoroacetyl)methylsulfinimidoyl]acetamide]
≥ 80%: mortality at 10 ppm (Plutella xylostella; in Brassica oleracea) | mortality at 10 ppm (Spodoptera litura; in Brassica oleracea) | mortality at 100 ppm (Spodoptera exigua; in Brassica oleracea) | mortality at 100 ppm (Aculops pelekassi)

CSC(SC)C(=O)NCc1ccc(C2=NOC(c3cc(C(F)(F)F)cc(C(F)(F)F)c3)(C(F)(F)F)C2)cc1Cl (stereo not drawn) [1-206, N-[4-[5-[3,5-bis(trifluoromethyl)phenyl]-5-trifluoromethyl-4,5-dihydroisoxazole-3-yl]-2-chlorophenyl]methyl-2,2-bis(methylthio)acetamide]
≥ 80%: mortality at 100 ppm (Spodoptera exigua; in Brassica oleracea) | mortality at 100 ppm (Aculops pelekassi) | mortality at 1 µg/cm2 (Cat Flea) | mortality at 0.1 µg/cm2 (American Dog Tick)

CS(=O)(=O)CC(=O)NCc1ccc(C2=NOC(c3cc(Br)cc(C(F)(F)F)c3)(C(F)(F)F)C2)cc1Cl (stereo not drawn) [1-113, N-[4-[5-[3-bromo-5-(trifluoromethyl)phenyl]-5-trifluoromethyl-4,5-dihydroisoxazole-3-yl]-2-chlorophenyl]methyl-2-(methylsulfonyl)acetamide]
≥ 80%: mortality at 100 ppm (Plutella xylostella; [2]) | mortality at 100 ppm (Spodoptera litura; [2]) | mortality at 100 ppm (Spodoptera exigua; drug solution 100 ppm, cabbage leaf immersed, 2 instar larvae, after 6 days, read-out: mortality) | mortality at 100 ppm (Homona magnanima) | mortality at 500 ppm (Nilaparvata lugens; drug solution 500 ppm, rice leaf sheath immersed, 2 instar larvae, after 6 days, read-out: mortality) | mortality at 500 ppm (Bemisia argentifolii; drug solution 500 ppm sprayed, tomato leaf with eggs, after 6 days, read-out: mortality) | mortality at 500 ppm (Myzus persicae; drug solution 500 ppm sprayed, cabbage leaf, apterous imagines, after 6 days, read-out: mortality) | mortality at 500 ppm (Liriomyza trifolii; drug solution 500 ppm, kidney bean leaf with eggs immersed, after 6 days, read-out: mortality) | mortality at 100 ppm (Aculops pelekassi; drug solution 100 ppm sprayed, mandarin orange leaf, larvae, after 6 days, read-out: mortality)
